Source: patent US11512090B2, “Muscarinic acetylcholine M1 receptor antagonists” (PIPELINE THERAPEUTICS, INC., priority 2018, dated 2022)
Like-named read-outs stand apart in the source and are kept apart here.

Tests used:
Assay type in all cases: cell-based
M3 = M3 (Homo sapiens, UniProt P20309); test: In vitro functional assay of muscarinic acetylcholine receptor activity, M3
human M1 receptor = molecular target: T1, human M1 receptor (Homo sapiens, UniProt P11229); test: In vitro functional assay of muscarinic acetylcholine receptor activity (aequorin calcium flux, antagonist mode vs EC80 acetylcholine), M1
T1 sequence (P11229 1-460): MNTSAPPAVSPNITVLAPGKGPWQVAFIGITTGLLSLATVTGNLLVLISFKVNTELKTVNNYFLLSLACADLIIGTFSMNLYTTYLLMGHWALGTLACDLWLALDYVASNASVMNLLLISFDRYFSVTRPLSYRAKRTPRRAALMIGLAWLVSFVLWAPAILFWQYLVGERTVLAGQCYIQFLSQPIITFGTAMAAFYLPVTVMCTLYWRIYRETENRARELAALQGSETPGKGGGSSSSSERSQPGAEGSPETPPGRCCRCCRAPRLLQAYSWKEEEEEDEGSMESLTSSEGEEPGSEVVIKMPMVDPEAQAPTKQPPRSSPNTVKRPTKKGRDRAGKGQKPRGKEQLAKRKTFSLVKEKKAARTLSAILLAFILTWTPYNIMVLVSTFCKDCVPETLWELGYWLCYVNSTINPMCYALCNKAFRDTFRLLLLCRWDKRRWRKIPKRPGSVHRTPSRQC
Method in brief: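 Antagonism at M1 was measured as a concentration-dependent reduction of the EC80 acetylcholine-evoked aequorin luminescence, from which IC50 was derived. Human M1 CHO-K1 aequorin cells were first loaded with 5 uM coelenterazine h for 4 h and exposed to compound for 30 min at room temperature.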

M2 = molecular target: T2, M2 (Homo sapiens, UniProt P08172); test: In vitro functional assay of muscarinic acetylcholine receptor activity, M2
T2 sequence (P08172 1-466): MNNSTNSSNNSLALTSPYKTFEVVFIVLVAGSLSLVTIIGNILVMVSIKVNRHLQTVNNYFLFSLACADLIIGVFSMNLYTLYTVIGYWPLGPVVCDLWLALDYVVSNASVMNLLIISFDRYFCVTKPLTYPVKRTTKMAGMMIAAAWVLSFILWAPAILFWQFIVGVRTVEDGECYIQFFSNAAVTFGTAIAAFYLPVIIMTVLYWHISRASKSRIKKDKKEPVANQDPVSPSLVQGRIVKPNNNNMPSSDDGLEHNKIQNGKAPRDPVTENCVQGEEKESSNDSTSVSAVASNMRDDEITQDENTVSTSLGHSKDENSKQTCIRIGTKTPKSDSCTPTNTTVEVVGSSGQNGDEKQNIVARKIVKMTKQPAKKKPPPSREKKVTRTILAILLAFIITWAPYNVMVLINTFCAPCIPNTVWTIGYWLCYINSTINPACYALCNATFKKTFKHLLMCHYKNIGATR

[1] = antagonist IC50 at M3, read-out: M3 IC50
[2] = antagonist IC50 at M2, read-out: M2 IC50
[3] = CHO-K1 cells stably expressing human M1 receptor with Aequorin, decrease in EC80 acetylcholine response, read-out: M1 IC50

Chain of M3 (P20309 whole entry): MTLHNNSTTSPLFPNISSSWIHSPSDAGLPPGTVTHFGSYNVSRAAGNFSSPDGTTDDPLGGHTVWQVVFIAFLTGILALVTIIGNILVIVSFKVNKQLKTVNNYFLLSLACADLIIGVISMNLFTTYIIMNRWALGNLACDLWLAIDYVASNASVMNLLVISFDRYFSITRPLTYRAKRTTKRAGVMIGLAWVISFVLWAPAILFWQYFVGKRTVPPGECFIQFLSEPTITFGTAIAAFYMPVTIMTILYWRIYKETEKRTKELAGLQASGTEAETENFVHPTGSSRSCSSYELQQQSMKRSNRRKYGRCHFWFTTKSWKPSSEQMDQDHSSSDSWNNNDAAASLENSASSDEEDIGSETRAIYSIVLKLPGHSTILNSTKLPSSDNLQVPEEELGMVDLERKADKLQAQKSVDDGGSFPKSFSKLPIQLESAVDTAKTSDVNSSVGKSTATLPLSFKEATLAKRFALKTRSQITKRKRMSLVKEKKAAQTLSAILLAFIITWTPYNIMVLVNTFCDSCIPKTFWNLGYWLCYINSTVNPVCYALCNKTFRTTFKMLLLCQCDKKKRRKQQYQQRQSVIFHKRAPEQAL

For `O=C(CCNCc1cccn2nccc12)N1CC2CCC(C1)N2c1ccc(Cl)cn1` [Example 163, 1-[8-(5-chloropyridin-2-yl)-3,8-diazabicyclo[3.2.1]octan-3-yl]-3-[({pyrazolo[1,5-a]pyridin-4-yl}methyl)amino]propan-1-one], the IC50 (M3; [1]) was > 10 µM, the IC50 (human M1 receptor) was 100 to 1000 nM and the IC50 (M2; [2]) was 1000 to 10000 nM.

With `O=C(CCNCc1c(F)ccc2nccn12)N1CC2CCC(C1)N2c1ccncc1F` [Example 139, 3-[({6-fluoroimidazo[1,2-a]pyridin-5-yl}methyl)amino]-1-[8-(3-fluoropyridin-4-yl)-3,8-diazabicyclo[3.2.1]octan-3-yl]propan-1-one] the IC50 (M3; [1]) was > 10 µM, the IC50 (human M1 receptor) was 100 to 1000 nM and the IC50 (M2; [2]) was > 10000 nM.

In the case of `O=C(COCc1cccc2nccn12)N1C[C@H]2CC[C@@H](C1)N2c1ccncc1F` [Example 75, 1-((1R,5S)-8-(3-fluoropyridin-4-yl)-3,8-diazabicyclo[3.2.1]octan-3-yl)-2-(imidazol[1,2-a]pyridin-5-ylmethoxy)ethan-1-one], the IC50 (M3; [1]) is reported as > 10 µM, the IC50 (human M1 receptor; [3]) is reported as 1000 to 10000 nM and the IC50 (M2; [2]) is reported as 1000 to 10000 nM.

`O=C(CCCc1cccc2ncccc12)N1CC2CC1CN2c1ccncc1` (stereo not drawn) [Example 57, 1-(5-(pyridin-4-yl)-2,5-diazabicyclo[2.2.1]heptan-2-yl)-4-(quinolin-5-yl)butan-1-one] showed an IC50 (M3; [1]) of 1 to 10 µM, an IC50 (human M1 receptor; [3]) of 100 to 1000 nM and an IC50 (M2; [2]) of 1000 to 10000 nM.

In the case of `N#Cc1cc(N2C3CCC2CN(C(=O)CCNCc2c(F)ccc4nccn24)C3)ccc1F` [Example 131, 2-fluoro-5-(3-{3-[({6-fluoroimidazo[1,2-a]pyridin-5-yl}methyl)amino]propanoyl}-3,8-diazabicyclo[3.2.1]octan-8-yl)benzonitrile], the IC50 (M3; [1]) is reported as > 10 µM, the IC50 (human M1 receptor) is reported as 100 to 1000 nM and the IC50 (M2; [2]) is reported as > 10000 nM.

`O=C(CCS(=O)(=O)c1cccc2ncsc12)N1CCN(c2ccc(C(F)(F)F)cn2)CC1` [Example 102, 3-(benzo[d]thiazol-7-ylsulfonyl)-1-(4-(5-(trifluoromethyl)pyridin-2-yl)piperazin-1-yl)propan-1-one] was tested, and the IC50 (M3; [1]) was 1 to 10 µM, the IC50 (human M1 receptor; [3]) was < 100 nM and the IC50 (M2; [2]) was 1000 to 10000 nM.

In the case of `C[C@H]1CN(c2cnccc2Cl)CCN1C(=O)CCS(=O)(=O)c1cccc2ncsc12` [Example 101, (S)-3-(benzo[d]thiazol-7-ylsulfonyl)-1-(4-(4-chloropyridin-3-yl)-2-methylpiperazin-1-yl)propan-1-one], the IC50 (M3; [1]) is reported as > 10 µM, the IC50 (human M1 receptor; [3]) is reported as 100 to 1000 nM and the IC50 (M2; [2]) is reported as 1000 to 10000 nM.

Work on `CN(CCC(=O)N1CC2CCC(C1)N2c1ccc(C#N)cn1)Cc1cccc2ncsc12` [Example 169, 6-[3-(3-{[(1,3-benzothiazol-7-yl)methyl](methyl)amino}propanoyl)-3,8-diazabicyclo[3.2.1]octan-8-yl]pyridine-3-carbonitrile] yielded an IC50 (M3; [1]) of 1 to 10 µM, an IC50 (human M1 receptor) of 100 to 1000 nM and an IC50 (M2) of 100 to 1000 nM.

For `N#Cc1ccc(N2C3CCC2CN(C(=O)CNCCc2cccc4ncsc24)C3)nc1` [Example 166, 6-[3-(2-{[2-(1,3-benzothiazol-7-yl)ethyl]amino}acetyl)-3,8-diazabicyclo[3.2.1]octan-8-yl]pyridine-3-carbonitrile], the IC50 (M3; [1]) was 1 to 10 µM, the IC50 (human M1 receptor) was 100 to 1000 nM and the IC50 (M2; [2]) was 1000 to 10000 nM.

For `N#Cc1cc(N2C3CCC2CN(C(=O)CCNCc2cccc4ncsc24)C3)ccn1` [Example 159, 4-[3-(3-{[(1,3-benzothiazol-7-yl)methyl]amino}propanoyl)-3,8-diazabicyclo[3.2.1]octan-8-yl]pyridine-2-carbonitrile], the IC50 (M3; [1]) was > 10 µM, the IC50 (human M1 receptor) was < 100 nM and the IC50 (M2; [2]) was 1000 to 10000 nM.

`N#Cc1ccc(N2C3CCC2CN(C(=O)COCCc2cccc4ncnn24)C3)nc1` [Example 183, 6-{3-[2-(2-{[1,2,4]triazolo[1,5-a]pyridin-5-yl}ethoxy)acetyl]-3,8-diazabicyclo[3.2.1]octan-8-yl}pyridine-3-carbonitrile] was tested, and the IC50 (M3; [1]) was 1 to 10 µM, the IC50 (human M1 receptor) was < 100 nM and the IC50 (M2; [2]) was > 10000 nM.

In the case of `Cc1cc(C#N)ncc1N1CCN(C(=O)CCNCc2c(F)ccc3nccn23)[C@@H](C)C1` [Example 151, 5-[(3S)-4-{3-[({6-fluoroimidazo[1,2-a]pyridin-5-yl}methyl)amino]propanoyl}-3-methylpiperazin-1-yl]-4-methylpyridine-2-carbonitrile], the IC50 (M3; [1]) is reported as > 10 µM, the IC50 (human M1 receptor; [3]) is reported as 1000 to 10000 nM and the IC50 (M2; [2]) is reported as 1000 to 10000 nM.

`C[C@H]1CN(c2cc(F)c(F)c(F)c2)CCN1C(=O)CCS(=O)(=O)c1cccc2ncsc12` [Example 116, (S)-3-(benzo[d]thiazol-7-ylsulfonyl)-1-(2-methyl-4-(3,4,5-trifluorophenyl)piperazin-1-yl)propan-1-one] showed an IC50 (M3; [1]) of 1 to 10 µM, an IC50 (human M1 receptor; [3]) of 1000 to 10000 nM and an IC50 (M2; [2]) of 1000 to 10000 nM.

With `O=C(CCS(=O)(=O)c1cccc2ncsc12)N1CC2CCC(C1)N2c1ccc(C(F)(F)F)cn1` [Example 147, 3-(1,3-benzothiazole-7-sulfonyl)-1-{8-[5-(trifluoromethyl)pyridin-2-yl]-3,8-diazabicyclo[3.2.1]octan-3-yl}propan-1-one] the IC50 (M3; [1]) was < 0.1 µM, the IC50 (human M1 receptor) was < 100 nM and the IC50 (M2; [2]) was < 100 nM.

In the case of `O=C(CCOCc1cccc2ncsc12)N1C[C@H]2CC[C@@H](C1)N2c1ccncc1F` [Example 85, 3-(benzo[d]thiazol-7-ylmethoxy)-1-((1R,5S)-8-(3-fluoropyridin-4-yl)-3,8-diazabicyclo[3.2.1]octan-3-yl)propan-1-one], the IC50 (M3; [1]) is reported as 1 to 10 µM, the IC50 (human M1 receptor) is reported as < 100 nM and the IC50 (M2; [2]) is reported as 1000 to 10000 nM.

Work on `CC1CN(c2ccncc2)CCN1C(=O)CCCc1cccc2ncccc12` (stereo not drawn) [Example 56, 1-(2-methyl-4-(pyridin-4-yl)piperazin-1-yl)-4-(quinolin-5-yl)butan-1-one] yielded an IC50 (M3; [1]) of 1 to 10 µM, an IC50 (human M1 receptor; [3]) of 100 to 1000 nM and an IC50 (M2; [2]) of 100 to 1000 nM.

With `O=C(CCS(=O)(=O)c1cccc2ncsc12)N1CCN(c2ccc(CO)cc2)CC1` [Example 138, 3-(1,3-benzothiazole-7-sulfonyl)-1-{4-[4-(hydroxymethyl)phenyl]piperazin-1-yl}propan-1-one] the IC50 (M3; [1]) was > 10 µM, the IC50 (human M1 receptor; [3]) was 100 to 1000 nM and the IC50 (M2; [2]) was > 10000 nM.

For `O=C(CCS(=O)(=O)c1cccc2ncsc12)N1CC=C(c2ccc(C(F)(F)F)cn2)CC1` [Example 140, 3-(1,3-benzothiazole-7-sulfonyl)-1-[5-(trifluoromethyl)-1′,2′,3′,6′-tetrahydro-[2,4′-bipyridin]-1′-yl]propan-1-one], the IC50 (M3; [1]) was 1 to 10 µM, the IC50 (human M1 receptor; [3]) was < 100 nM and the IC50 (M2; [2]) was 1000 to 10000 nM.

`Cc1cc(F)cnc1N1CCN(C(=O)COCc2cccc3ncccc23)[C@@H](C)C1` [Example 87, (S)-1-(4-(5-fluoro-3-methylpyridin-2-yl)-2-methylpiperazin-1-yl)-2-(quinolin-5-ylmethoxy)ethan-1-one] was tested, and the IC50 (M3; [1]) was 1 to 10 µM, the IC50 (human M1 receptor; [3]) was 1000 to 10000 nM and the IC50 (M2; [2]) was 1000 to 10000 nM.

With `N#Cc1ccc(N2C3CCC2CN(C(=O)COCCc2cccc4nccnc24)C3)nc1` [Example 43, 6-(3-{2-[2-(quinoxalin-5-yl)ethoxy]acetyl}-3,8-diazabicyclo[3.2.1]octan-8-yl)pyridine-3-carbonitrile] the IC50 (M3) was > 10 µM, the IC50 (human M1 receptor) was 100 to 1000 nM and the IC50 (M2) was 1000 to 10000 nM.

In the case of `O=C(C1CC1COc1cccc2ncsc12)N1C[C@H]2CC[C@@H](C1)N2c1ccncc1F` (stereo partly drawn) [Example 9, (2-((benzo[d]thiazol-7-yloxy)methyl)-cyclopropyl)((1R,5S)-8-(3-fluoropyridin-4-yl)-3,8-diazabicyclo[3.2.1]octan-3-yl)methanone], the IC50 (M3; [1]) is reported as 1 to 10 µM, the IC50 (human M1 receptor; [3]) is reported as > 10000 nM and the IC50 (M2; [2]) is reported as 1000 to 10000 nM.

For `N#Cc1ccc(N2C3CCC2CN(C(=O)CCNCc2cccc4ncnn24)C3)nc1` [Example 33, 6-(3-{3-[({[1,2,4]triazolo[1,5-a]pyridin-5-yl}methyl)amino]propanoyl}-3,8-diazabicyclo[3.2.1]octan-8-yl)pyridine-3-carbonitrile], the IC50 (M3; [1]) was > 10 µM, the IC50 (human M1 receptor) was < 100 nM and the IC50 (M2; [2]) was 1000 to 10000 nM.

In the case of `N#Cc1ccc(N2CC3CCC2CN3C(=O)CCS(=O)(=O)c2cccc3ncsc23)nc1` (stereo not drawn) [Example 125, 6-{5-[3-(1,3-benzothiazole-7-sulfonyl)propanoyl]-2,5-diazabicyclo[2.2.2]octan-2-yl}pyridine-3-carbonitrile], the IC50 (M3; [1]) is reported as 0.1 to 1 µM, the IC50 (human M1 receptor; [3]) is reported as < 100 nM and the IC50 (M2; [2]) is reported as 100 to 1000 nM.

For `N#Cc1ccc(N2C3CCC2CN(C(=O)CCNCc2cccc4ncnn24)C3)cc1` [Example 171, 4-(3-{3-[({[1,2,4]triazolo[1,5-a]pyridin-5-yl}methyl)amino]propanoyl}-3,8-diazabicyclo[3.2.1]octan-8-yl)benzonitrile], the IC50 (M3; [1]) was > 10 µM, the IC50 (human M1 receptor) was 100 to 1000 nM and the IC50 (M2; [2]) was > 10000 nM.
